From ChEMBL document CHEMBL3044672, “N9- and N7-(Chloromethyl Phenymethyl)Chloropurine Derivatives from , '-Dichloroxylenes: Synthesis and Anticancer Activity” (2005)

Tests used:
Format in all cases: functional
[1] = tested on: 786-0; test: Cytotoxicity against Homo sapiens (human) 786-0 cells after 48 hr by sulforhodamine B assay; settings: 786-0, 48 h
[2] = tested on: SF-268; test: Cytotoxicity against Homo sapiens (human) SF268 cells assessed as cell growth at 10^-4 M after 48 hr by […] assay; settings: SF-268, 48 h, read-out: Activity
[3] = tested on: EKVX; test: Cytotoxicity against Homo sapiens (human) EKVX cells after 48 hr by sulforhodamine B assay; settings: for CC50: read-out: LC50 (the source's name)
[4] = tested on: CAKI-1; test: Cytotoxicity against Homo sapiens (human) Caki1 cells after 48 hr by sulforhodamine B assay; settings: CAKI-1, 48 h; for CC50: read-out: LC50 (the source's name)
[5] = tested on: CCRF-CEM; test: Cytotoxicity against Homo sapiens (human) CCRF-CEM cells after 48 hr by sulforhodamine B assay; settings: for CC50: read-out: LC50 (the source's name)
[6] = tested on: UACC-62; test: Cytotoxicity against Homo sapiens (human) UACC62 cells after 48 hr by sulforhodamine B assay; settings: UACC-62, 48 h
[7] = tested on: ACHN; test: Cytotoxicity against Homo sapiens (human) ACHN cells after 48 hr by sulforhodamine B assay; settings: for CC50: read-out: LC50 (the source's name)
[8] = tested on: SF-539; test: Cytotoxicity against Homo sapiens (human) SF539 cells after 48 hr by sulforhodamine B assay; settings: SF-539, 48 h
[9] = tested on: OVCAR-8; test: Cytotoxicity against Homo sapiens (human) OVCAR8 cells after 48 hr by sulforhodamine B assay; settings: OVCAR-8, 48 h
[10] = tested on: HOP-62; test: Cytotoxicity against Homo sapiens (human) HOP62 cells after 48 hr by sulforhodamine B assay; settings: HOP-62, 48 h; for CC50: read-out: LC50 (the source's name)
[11] = tested on: BT-549; test: Cytotoxicity against Homo sapiens (human) BT549 cells after 48 hr by sulforhodamine B assay; settings: BT-549, 48 h
[12] = tested on: SF-295; test: Cytotoxicity against Homo sapiens (human) SF295 cells after 48 hr by sulforhodamine B assay; settings: SF-295, 48 h; for CC50: read-out: LC50 (the source's name)
[13] = tested on: NCI-H522; test: Cytotoxicity against Homo sapiens (human) NCI-H522 cells after 48 hr by sulforhodamine B assay; settings: NCI-H522, 48 h; for CC50: read-out: LC50 (the source's name)
[14] = tested on: OVCAR-3; test: Cytotoxicity against Homo sapiens (human) OVCAR3 cells after 48 hr by sulforhodamine B assay; settings: OVCAR-3, 48 h
[15] = tested on: SNB-19; test: Cytotoxicity against Homo sapiens (human) SNB19 cells after 48 hr by sulforhodamine B assay; settings: SNB-19, 48 h
[16] = tested on: HCT-116; test: Cytotoxicity against Homo sapiens (human) HCT116 cells after 48 hr by sulforhodamine B assay; settings: HCT-116, 48 h; for CC50: read-out: LC50 (the source's name)
[17] = tested on: RXF 393; test: Cytotoxicity against Homo sapiens (human) RXF393 cells after 48 hr by sulforhodamine B assay; settings: RXF 393, 48 h; for CC50: read-out: LC50 (the source's name)
[18] = tested on: SNB-75; test: Cytotoxicity against Homo sapiens (human) SNB75 cells after 48 hr by sulforhodamine B assay; settings: SNB-75, 48 h; for CC50: read-out: LC50 (the source's name)
[19] = tested on: MDA-MB-231; test: Cytotoxicity against Homo sapiens (human) MDA-MB-231 cells after 48 hr by sulforhodamine B assay; settings: MDA-MB-231, 48 h
[20] = tested on: MOLT-4; test: Cytotoxicity against Homo sapiens (human) MOLT4 cells after 48 hr by sulforhodamine B assay; settings: MOLT-4, 48 h; for CC50: read-out: LC50 (the source's name)
[21] = tested on: SK-MEL-2; test: Cytotoxicity against Homo sapiens (human) SK-MEL-2 cells after 48 hr by sulforhodamine B assay; settings: SK-MEL-2, 48 h
[22] = tested on: COLO 205; test: Cytotoxicity against Homo sapiens (human) COLO205 cells after 48 hr by sulforhodamine B assay; settings: COLO 205, 48 h; for CC50: read-out: LC50 (the source's name)
[23] = tested on: SW-620; test: Cytotoxicity against Homo sapiens (human) SW620 cells after 48 hr by sulforhodamine B assay; settings: SW-620, 48 h; for CC50: read-out: LC50 (the source's name)
[24] = tested on: NCI-H322M; test: Cytotoxicity against Homo sapiens (human) NCI-H322M cells after 48 hr by sulforhodamine B assay; settings: for CC50: read-out: LC50 (the source's name)
[25] = tested on: SF-268; test: Cytotoxicity against Homo sapiens (human) SF268 cells after 48 hr by sulforhodamine B assay; settings: SF-268, 48 h; for CC50: read-out: LC50 (the source's name)
[26] = tested on: OVCAR-5; test: Cytotoxicity against Homo sapiens (human) OVCAR5 cells after 48 hr by sulforhodamine B assay; settings: OVCAR-5, 48 h; for CC50: read-out: LC50 (the source's name)
[27] = tested on: SK-OV-3; test: Cytotoxicity against Homo sapiens (human) SKOV3 cells after 48 hr by sulforhodamine B assay; settings: SK-OV-3, 48 h

SMILES: ClCc1cccc(Cn2cnc3c(Cl)nc(Cl)nc32)c1
- GI50 [1]: 12.3 µM
- LC50 [1]: 57.5 µM
- TGI [1]: 26.9 µM
- growth at 100 µM [2]: 0%
- GI50 [3]: 1.73 µM
- TGI [3]: 2.31 µM
- CC50 [3]: 6.45 µM
- GI50 [4]: 2.23 µM
- TGI [4]: 5.88 µM
- CC50 [4]: 22.9 µM
- GI50 [5]: 2.69 µM
- TGI [5]: > 100 µM
- CC50 [5]: > 100 µM
- GI50 [6]: 1.86 µM
- LC50 (concentration causing 50% net cell kill) [6]: 6.45 µM
- TGI [6]: 3.46 µM
- GI50 [7]: 1.9 µM
- TGI [7]: 3.71 µM
- CC50 [7]: 7.24 µM
- GI50 [8]: 2.18 µM
- LC50 (concentration killing 50% of cells) [8]: 40.7 µM
- TGI [8]: 14.1 µM
- GI50 [9]: 1.82 µM
- LC50 (concentration killing 50% of cells) [9]: 67.6 µM
- TGI [9]: 3.54 µM
- GI50 [10]: 2.29 µM
- TGI [10]: 4.36 µM
- CC50 [10]: 8.31 µM
- GI50 [11]: 1.69 µM
- LC50 (50% lethal concentration) [11]: 6.16 µM
- TGI [11]: 3.23 µM
- GI50 [12]: 4.36 µM
- TGI [12]: 17 µM
- CC50 [12]: 45.7 µM
- GI50 [13]: 2.69 µM
- TGI [13]: 5.37 µM
- CC50 [13]: 17 µM
- GI50 [14]: 1.58 µM
- LC50 [14]: 6.45 µM
- TGI [14]: 3.23 µM
- GI50 [15]: 1.95 µM
- LC50 [15]: 8.92 µM
- TGI [15]: 4.16 µM
- GI50 [16]: 1.62 µM
- TGI [16]: 3.09 µM
- CC50 [16]: 5.88 µM
- GI50 [17]: 0.75 µM
- TGI [17]: 2.09 µM
- CC50 [17]: 5.12 µM
- GI50 [18]: 2.04 µM
- TGI [18]: 3.89 µM
- CC50 [18]: 7.41 µM
- GI50 [19]: 1.95 µM
- LC50 [19]: 7.24 µM
- TGI [19]: 3.71 µM
- GI50 [20]: 3.38 µM
- TGI [20]: > 100 µM
- CC50 [20]: > 100 µM
- GI50 [21]: 1.99 µM
- LC50 (concentration killing 50% of cells) [21]: 10 µM
- TGI [21]: 4.46 µM
- GI50 [22]: 2.23 µM
- TGI [22]: 5.37 µM
- CC50 [22]: > 100 µM
- GI50 [23]: 1.58 µM
- TGI [23]: 3.46 µM
- CC50 [23]: 7.76 µM
- GI50 [24]: 2.29 µM
- TGI [24]: 5.12 µM
- CC50 [24]: 15.8 µM
- GI50 [25]: 2.51 µM
- TGI [25]: 6.6 µM
- CC50 [25]: 70.8 µM
- GI50 [26]: 6.45 µM
- TGI [26]: 20.4 µM
- CC50 [26]: 47.9 µM

SMILES: ClCc1ccccc1Cn1cnc2ncnc(Cl)c21
- GI50 [1]: 3.98 µM
- LC50 [1]: 47.9 µM
- TGI [1]: 12.9 µM
- growth at 100 µM [2]: 0%
- GI50 [3]: 5.37 µM
- TGI [3]: 17.8 µM
- CC50 [3]: 45.7 µM
- GI50 [4]: 2.34 µM
- TGI [4]: 4.16 µM
- CC50 [4]: 7.41 µM
- GI50 [5]: 1.44 µM
- TGI [5]: 3.54 µM
- CC50 [5]: 8.7 µM
- GI50 [6]: 1.86 µM
- LC50 (concentration causing 50% net cell kill) [6]: 19.1 µM
- TGI [6]: 5.12 µM
- GI50 [7]: 1.99 µM
- TGI [7]: 4.26 µM
- CC50 [7]: 9.12 µM
- GI50 [8]: 2.34 µM
- LC50 (concentration killing 50% of cells) [8]: 12 µM
- TGI [8]: 5.01 µM
- GI50 [9]: 2.75 µM
- LC50 (concentration killing 50% of cells) [9]: 58.9 µM
- TGI [9]: 8.7 µM
- GI50 [10]: 11.2 µM
- TGI [10]: 28.8 µM
- CC50 [10]: 75.9 µM
- GI50 [11]: 2.45 µM
- LC50 (50% lethal concentration) [11]: 25.1 µM
- TGI [11]: 6.02 µM
- GI50 [12]: 7.94 µM
- TGI [12]: 20.4 µM
- CC50 [12]: 46.8 µM
- GI50 [13]: 2.81 µM
- TGI [13]: 75.9 µM
- CC50 [13]: > 100 µM
- GI50 [14]: 2.04 µM
- LC50 [14]: 8.31 µM
- TGI [14]: 4.16 µM
- GI50 [15]: 7.24 µM
- LC50 [15]: > 100 µM
- TGI [15]: > 100 µM
- GI50 [16]: 1.51 µM
- TGI [16]: 4.07 µM
- CC50 [16]: 40.7 µM
- GI50 [17]: 1.65 µM
- TGI [17]: 6.54 µM
- CC50 [17]: > 100 µM
- GI50 [18]: 11.2 µM
- TGI [18]: 26.9 µM
- CC50 [18]: 63.1 µM
- GI50 [19]: 2.75 µM
- LC50 [19]: 25.1 µM
- TGI [19]: 6.91 µM
- GI50 [20]: 1.65 µM
- TGI [20]: 4.26 µM
- CC50 [20]: 16.6 µM
- GI50 [21]: 4.16 µM
- LC50 (concentration killing 50% of cells) [21]: > 100 µM
- TGI [21]: 19.5 µM
- GI50 [27]: 7.58 µM
- LC50 [27]: 85.1 µM
- TGI [27]: 26.9 µM
- GI50 [22]: 4.36 µM
- TGI [22]: > 100 µM
- CC50 [22]: > 100 µM
- GI50 [23]: 2.23 µM
- TGI [23]: 4.67 µM
- CC50 [23]: 10 µM
- GI50 [24]: 4.67 µM
- TGI [24]: 15.8 µM
- CC50 [24]: 40.7 µM
- GI50 [25]: 4.78 µM
- TGI [25]: 24.5 µM
- CC50 [25]: > 100 µM
- GI50 [26]: 2.81 µM
- TGI [26]: 7.24 µM
- CC50 [26]: 26.9 µM
